# From patent publication US20130344183A1, “NOVEL COMPOUND ISOLATED FROM […] ROXB AND USE THEREOF AS ANTIVIRAL AGENT” (priority 2011, published 2013)
# Tested on: A/Vietnam/1194/04(H5N1)-NIBRG-14 highly pathogenic avian influenza virus
# Assay type: cell-based
Compound,CPE inhibitory concentration [µg/mL],log100TCID50/,Activity,viral titer lower than that of the control group [log]
"C=C1C(=O)O[C@@H]2[C@@H]1[C@H](OC(=O)/C(C)=C\C)[C@@]1(O)O[C@H](C[C@@H]1C)C[C@@](C)(O)[C@H]2OC(=O)CC(C)C [Compound III, 2α,5-epoxy-5,10-dihydroxy-6α-angeloyloxy-9β-(3-methyl-butanoyloxy)-gemacran-8α,12-olide]",>10,0,–,–
"C=C1C(=O)O[C@@H]2[C@@H]1[C@H](OC(=O)/C(C)=C\C)[C@@]1(O)O[C@H](C[C@@H]1C)C[C@@](C)(O)[C@H]2OC(=O)C(C)C [Compound I, 2α,5-epoxy-5,10-dihydroxy-6α-angeloyloxy-9β-isobutyloxy-germacran-8α,12-olide]",>10,0,–,–
"C=C1C(=O)OC2CC(C)(O)C3CCC(C)(O)C3CC12 (stereo not drawn) [Compound IV, 4β,10α-dihydroxy-guaia-8α,12-olide]",–,5,∘ (key: ∘: antiviral activity defined as a decrease of 4 log units),4
